Reference: patent US4307189A, “Method for the quantitative determination of terminal deoxynucleotidyl transferase in biological samples” (priority 1980, dated 1981)
Where two headings read alike, the source gives them in different places.

Key:
[1] = tested on: polynucleotide phophorylase; conditions: cited from earlier work
TdT = conditions: cited from earlier work
[2] = tested on: other cellular DNA polymerases; conditions: 100 mM ATP added (Mertelsmann); cited from earlier work
[3] = tested on: Terminal Deoxynucleotidyl Transferase (TdT); experiment: Incorporation of tritium labeled nucleotide into acid insoluble polydeoxynucleotides by purified TdT; format: biochemical; conditions: purified TdT enzyme sample, 90 minute incubation period, tritium labeled substrate
Protocol: (§1) To illustrate that suitable modified deoxynucleoside triphosphates and/or single stranded oligodeoxynucleotides which have impaired basing pairing abilities, as described above, are specific to TdT, tritium labeled ethenodeoxyadenosine triphosphate (etheno dATP) and tritium labeled deoxyadenosine triphosphate (dATP) were appropriately incubated with a purified TdT enzyme sample and with a purified E. coli DNA polymerase I sample.

E. coli DNA polymerase I = E. coli DNA polymerase I (Escherichia coli, UniProt P00582); experiment: Incorporation of tritium labeled nucleotide into acid insoluble polydeoxynucleotide by purified E. coli DNA polymerase I; format: biochemical; conditions: purified E. coli DNA polymerase I sample, 90 minute incubation period, tritium labeled substrate
Protocol: as §1

Sequence of E. coli DNA polymerase I (P00582 whole entry): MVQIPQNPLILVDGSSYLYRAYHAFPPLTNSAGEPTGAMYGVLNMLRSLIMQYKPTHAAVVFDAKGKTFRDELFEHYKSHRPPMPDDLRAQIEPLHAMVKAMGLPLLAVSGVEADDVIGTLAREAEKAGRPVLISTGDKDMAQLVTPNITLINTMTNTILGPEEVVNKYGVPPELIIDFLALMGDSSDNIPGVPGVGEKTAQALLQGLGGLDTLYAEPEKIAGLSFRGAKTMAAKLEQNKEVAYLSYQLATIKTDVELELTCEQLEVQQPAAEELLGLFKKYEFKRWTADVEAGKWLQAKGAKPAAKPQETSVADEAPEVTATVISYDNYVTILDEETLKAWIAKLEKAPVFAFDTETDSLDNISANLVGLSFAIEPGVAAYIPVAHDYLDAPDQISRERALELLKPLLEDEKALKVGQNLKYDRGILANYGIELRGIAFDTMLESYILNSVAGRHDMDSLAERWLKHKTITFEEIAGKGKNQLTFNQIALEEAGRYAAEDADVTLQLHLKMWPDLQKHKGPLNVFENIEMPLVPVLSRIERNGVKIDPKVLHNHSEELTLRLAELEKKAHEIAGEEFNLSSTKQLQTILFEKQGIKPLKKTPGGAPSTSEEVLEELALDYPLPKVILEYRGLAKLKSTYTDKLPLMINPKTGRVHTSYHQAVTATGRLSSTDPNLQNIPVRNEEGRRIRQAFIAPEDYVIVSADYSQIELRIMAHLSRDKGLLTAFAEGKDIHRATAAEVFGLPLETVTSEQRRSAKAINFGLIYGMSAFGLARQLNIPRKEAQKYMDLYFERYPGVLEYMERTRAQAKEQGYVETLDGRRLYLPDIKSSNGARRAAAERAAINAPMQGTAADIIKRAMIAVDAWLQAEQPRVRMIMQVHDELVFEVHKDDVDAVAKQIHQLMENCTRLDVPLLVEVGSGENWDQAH

Row | Compound | incorporation into acid insoluble polydeoxynucleotides [3] | incorporation into acid insoluble polydeoxynucleotide (E. coli DNA polymerase I) | further results
1 | 6-dimethylaminoadenine |  |  | substrate for template independent RNA polymerase, polynucleotide phophorylase [1]: remains a substrate
2 | Nc1ncnc2c1ncn2[C@@H]1O[C@H](COP(=O)(O)OP(=O)(O)OP(=O)(O)O)[C@@H](O)[C@H]1O [ATP, adenosine triphosphate] |  |  | inhibition of TdT activity (TdT; 100 mM ATP added (Mertelsmann)): specifically inhibits TdT; effect on other cellular DNA polymerases [2]: without affecting other cellular DNA polymerases
3 | CCN1C(=O)C=CC1=O [N-ethylmaleimide] |  |  | inhibition of TdT activity (TdT; 10% ethanol and 10 mM N-ethylmaleimide added (Coleman)): completely inhibit TdT activity
4 | Nc1ncnc2c1ncn2[C@H]1C[C@H](O)[C@@H](COP(=O)(O)OP(=O)(O)OP(=O)(O)O)O1 [dATP, deoxyadenosine triphosphate] | progressive incorporation | normally and appreciably incorporated | 
5 | O=P(O)(O)OP(=O)(O)OP(=O)(O)OC[C@H]1O[C@@H](n2cnc3c2ncn2ccnc32)C[C@@H]1O [etheno-dATP, 1,N^6 -ethenodeoxy-adenosine triphophate] | progressive incorporation | no detectable incorporation | 
